Laboratory results published in patent publication US5230897A, “Transdermal pentamidine” (priority 1991, dated 1993).
Several values for one entry are separate records, joined by “and”; a condition that tells them apart may be missing. Identical values can stand only once. Like-named read-outs stand apart in the source and are kept apart here.

How the values were obtained:
[1] = Protocol: The in vitro studies described herein measured the rate of pentamidine transport across skin excised from a "nude" mouse. The skin is placed in a vertical two-chambered device. The skin partitions between a donor compartment containing a formulation to be tested and a receptor compartment containing the aqueous medium. The skin is clamped in place with skin epidermis facing the donor compartment. A water jacket maintains a constant temperature (37° C.).
The following pharmaceutical formulations were prepared by dissolving any dry ingredients (i.e. pentamidine isethionate, terpene, methyl paraben, propyl paraben) in the solvent (i.e. isopropyl alcohol/water or propylene glycol/water). […] Gentle stirring was then continued for the next 15 minutes or until the solution thickened. When polyquaternium-10 is the polymer heating was required to make the formulation gel.

[2] = Pentamidine pharmacokinetics after transdermal application in Rhesus monkeys (plasma, urine, residual analysis)
[3] = Pentamidine pharmacokinetics after IV infusion in Rhesus monkeys (plasma, urine); assay type: in vivo
Protocol: Pentamidine was administered to four Rhesus monkeys by an IV infusion of 1 hr duration which was designed to deliver 4 mg drug/kg animal weight. Urine samples were obtained at -24 to 0 hr, 0 to 3 hr, 3 to 7 hr, 7 to 24 hr and 24 to 48 hr. Blood (2 ml) was withdrawn from an arm vein at -24 hr, 0.5 hr, 1 hr, 2 hr, 3 hr, 5 hr, 7 hr, 24 hr and 48 hr after the end of the IV infusion. Plasma was obtained from the heparinized blood by centrifugation.

[4] = rhesus monkey, in vivo

CC(C)[C@@H]1CC[C@@H](C)C[C@@H]1O (relative stereo) [neomenthol]
penetration enhancement for transdermal delivery of pentamidine ([1]; result in words): effective penetration enhancers

CC12CCC(CC1=O)C2(C)C (stereo not drawn) [camphor]
penetration enhancement for transdermal delivery of pentamidine ([1]; result in words): effective penetration enhancers

Cc1ccc(C(C)C)cc1O [carvacrol]
penetration enhancement for transdermal delivery of pentamidine ([1]; result in words): effective penetration enhancers

C=C(C)C1CC=C(C)[C@@H](O)C1 (stereo partly drawn) [carveol]
penetration enhancement for transdermal delivery of pentamidine [1]: effective penetration enhancers

C=C(C)C1CC=C(C)C(=O)C1 (stereo not drawn) [carvone]
penetration enhancement for transdermal delivery of pentamidine ([1]; result in words): effective penetration enhancers

CC(C)=CCCC(C)=CC=O [citral]
penetration enhancement for transdermal delivery of pentamidine ([1]; result in words): effective penetration enhancers

C=C(C)C1CCC(C)C(O)C1 (stereo not drawn) [dihydrocarveol]
penetration enhancement for transdermal delivery of pentamidine ([1]; result in words): effective penetration enhancers

C=C(C)C1CCC(C)C(=O)C1 (stereo not drawn) [dihydrocarvone]
penetration enhancement for transdermal delivery of pentamidine ([1]; result in words): effective penetration enhancers

C=C(C)[C@@H]1CC[C@@H](C)C[C@H]1O [isopulegol]
penetration enhancement for transdermal delivery of pentamidine ([1]; result in words): effective penetration enhancers

C=CC(C)(O)CCC=C(C)C (stereo not drawn) [linalol]
penetration enhancement for transdermal delivery of pentamidine ([1]; result in words): effective penetration enhancers

CC1CCC(C(C)C)C(O)C1 (stereo not drawn) [menthol]
penetration enhancement for transdermal delivery of pentamidine ([1]; result in words): effective penetration enhancers

CC(C)[C@@H]1CC[C@@H](C)CC1=O [menthone]
penetration enhancement for transdermal delivery of pentamidine ([1]; result in words): effective penetration enhancers

N=C(N)c1ccc(OCCCCCOc2ccc(C(=N)N)cc2)cc1 [pentamidine, 4,4'-[1,5-Pentanediylbis(oxy)]bisbenzenecarboximidamide]
% Absolute Bioavail. ([2]; (AUCtrans/AUCiv) × (DOSEiv/DOSEtrans) × 100, individual monkeys 1, 2, 3, 4): 99.2% and 29.03% and 18.99% and 27.19%
residual pentamidine recovered from transdermal chambers ([2]; chambers removed 24 hr after application): Only small amounts of the original dose of pentamidine were recovered
% Dose absorbed excreted in urine, transdermal dose 0-48, Average (SD) ([2]; dose absorbed from urine % bioavailability, average of 4 monkeys): 2.26 (1.45) %
% Dose absorbed excreted in urine, transdermal dose 0-48 ([2]; dose absorbed from urine % bioavailability, individual monkeys 1, 2, 3, 4): 2.15% and 3.88% and 2.62% and 0.38%
% Bioavailability ([2]; dose-corrected ratio of total pentamidine excreted in urine, transdermal vs IV, individual monkeys 1, 2, 3, 4): 50.34% and 19.32% and 73.28% and 85.62%
AUC, Trans (0-72 hr) ([2]; plasma, transdermal 292 mg, individual monkeys 1, 2, 3, 4, 4320 min): 7407 (ng/ml) h and 3426 (ng/ml) h and 2721 (ng/ml) h and 4384 (ng/ml) h
bioavailability ([2]; rhesus monkey, plasma, topical or ocular, 292 mg, % Absolute Bioavail., Average (SD), (AUCtrans/AUCiv) × (DOSEiv/DOSEtrans) × 100, average of 4 monkeys): 43.6%
AUC at 72 h ([2]; rhesus monkey, plasma, topical or ocular, 292 mg, AUC, Trans (0-72 hr), Average (SD), transdermal 292 mg, average of 4 monkeys): 4480 ng·h/mL
Fa at 24 h ([2]; rhesus monkey, residual in pads, topical or ocular, 292 mg, % Absorbed (from residual analysis in the pads), Average (SD), transdermal, average of 4 monkeys): 57.7%
bioavailability ([2]; rhesus monkey, urine, topical or ocular, 292 mg, % Bioavailability, Average (SD), dose-corrected ratio of total pentamidine excreted in urine, transdermal vs IV, average of 4 monkeys): 57.1%
% Absorbed (from residual analysis in the pads) ([2]; transdermal, individual monkeys 1, 2, 3, 4, 1440 min): 70.9% and 54.4% and 58.8% and 46.5%
Urine Cum. Pentam., Trans. 0-48 h, Average (SD) ([2]; urine, transdermal, average of 4 monkeys): 2.98 (1.97) mg
Urine Cum. Pentam., Trans. 0-48 h ([2]; urine, transdermal, individual monkeys 1, 2, 3, 4): 3.16 mg and 2.18 mg and 5.61 mg and 0.95 mg
Total Clearance, IV dose ([3]; DOSEiv/AUCiv, individual monkeys 1, 2, 3, 4, 4 mg/kg): 39.27 lt/h and 24.18 lt/h and 20.38 lt/h and 19.38 lt/h
AUC, IV (0-5 h) ([3]; plasma, IV 4 mg/kg, 1 hr infusion, individual monkeys 1, 2, 3, 4, 4 mg/kg, 300 min): 428 (ng/ml) h and 719 (ng/ml) h and 883 (ng/ml) h and 784 (ng/ml) h
AUC at 5 h ([3]; rhesus monkey, plasma, iv, 4 mg/kg, AUC, IV (0-5 h), Average (SD), IV 4 mg/kg, 1 hr infusion, average of 4 monkeys): 704 ng·h/mL
clearance ([3]; rhesus monkey, plasma, iv, 4 mg/kg, DOSEiv/AUCiv, average of 4 monkeys, read-out: Total Clearance, IV dose, Average (SD) (converted)): 430 mL/min
dose excreted at 48 h ([3]; rhesus monkey, urine, iv, 4 mg/kg, IV, average of 4 monkeys, read-out: % Dose excreted in urine, IV dose 0-48 h, Average (SD)): 2.28%
CL renal at 48 h ([3]; rhesus monkey, urine, iv, 4 mg/kg, amount in urine (0-48 h)/AUCiv, average of 4 monkeys, read-out: Renal Clearance, IV dose, Average (SD) (converted)): 10 mL/min
Urine Cum. Pentam., IV 0-48 h, Average (SD) ([3]; urine, IV, average of 4 monkeys): 0.39 (0.27) mg
Urine Cum. Pentam., IV 0-48 h ([3]; urine, IV, individual monkeys 1, 2, 3, 4): 0.360 mg and 0.691 mg and 0.473 mg and 0.054 mg
blood levels of pentamidine by transdermal delivery [4]: effective blood levels of pentamidine can be achieved by transdermal delivery

CC(C)=C1CC[C@@H](C)CC1=O [pulegone]
penetration enhancement for transdermal delivery of pentamidine ([1]; result in words): effective penetration enhancers

C/C=C/c1ccc(OC)cc1 [t-anethole]
penetration enhancement for transdermal delivery of pentamidine ([1]; result in words): effective penetration enhancers

CC1=CCC(O)(C(C)C)CC1 (stereo not drawn) [terpene-4-ol]
penetration enhancement for transdermal delivery of pentamidine [1]: effective penetration enhancers

Cc1ccc(C(C)C)c(O)c1 [thymol]
penetration enhancement for transdermal delivery of pentamidine ([1]; result in words): effective penetration enhancers

CC1=CCC(C(C)(C)O)CC1 (stereo not drawn) [α-terpineol]
penetration enhancement for transdermal delivery of pentamidine ([1]; result in words): effective penetration enhancers
